Reference: article PMC4907197 (Applied and Environmental Microbiology, 2016)

Tests used:
KES23460 = target: T1, KES23460 (Pseudomonas sp. AAC, UniProt A0ABD3YRH9); test: KES23458-coupled NADH formation, A340; format: biochemical; settings: NAD, pH […]
T1 construct: gene FG99_15390
T1 sequence (A0ABD3YRH9 1-498): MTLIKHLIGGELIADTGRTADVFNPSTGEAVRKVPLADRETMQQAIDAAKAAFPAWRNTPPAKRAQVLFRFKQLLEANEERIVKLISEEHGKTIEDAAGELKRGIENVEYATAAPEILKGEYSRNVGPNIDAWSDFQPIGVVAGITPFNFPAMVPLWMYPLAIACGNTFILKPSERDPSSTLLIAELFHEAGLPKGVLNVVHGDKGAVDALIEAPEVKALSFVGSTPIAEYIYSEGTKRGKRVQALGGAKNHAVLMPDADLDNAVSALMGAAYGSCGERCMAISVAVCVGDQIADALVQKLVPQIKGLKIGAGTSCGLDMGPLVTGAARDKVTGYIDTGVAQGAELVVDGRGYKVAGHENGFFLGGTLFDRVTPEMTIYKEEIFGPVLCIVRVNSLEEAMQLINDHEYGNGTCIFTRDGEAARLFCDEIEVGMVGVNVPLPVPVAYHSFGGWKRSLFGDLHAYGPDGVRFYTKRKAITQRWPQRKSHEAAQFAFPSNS

KES23458 = target: T2, KES23458 (Pseudomonas sp. AAC, UniProt Z9SKW1E3X5); test: X-ray crystallography; mass spectrometry; format: binding; settings: crystal density atypical of PLP (PLP'), no aldimine seen; MS shows aldimine-bound unmodified PLP; covalent (Lys288 presumed); native structure 1.24 Å
T2 construct: full length minus N-terminal Met by mass spectrometry; homodimer; phospho-His31 and phospho-His360 observed; deconvoluted MS peak 50,399 (reduced with PLP)
T2 sequence (Z9SKW1E3X5 22-468): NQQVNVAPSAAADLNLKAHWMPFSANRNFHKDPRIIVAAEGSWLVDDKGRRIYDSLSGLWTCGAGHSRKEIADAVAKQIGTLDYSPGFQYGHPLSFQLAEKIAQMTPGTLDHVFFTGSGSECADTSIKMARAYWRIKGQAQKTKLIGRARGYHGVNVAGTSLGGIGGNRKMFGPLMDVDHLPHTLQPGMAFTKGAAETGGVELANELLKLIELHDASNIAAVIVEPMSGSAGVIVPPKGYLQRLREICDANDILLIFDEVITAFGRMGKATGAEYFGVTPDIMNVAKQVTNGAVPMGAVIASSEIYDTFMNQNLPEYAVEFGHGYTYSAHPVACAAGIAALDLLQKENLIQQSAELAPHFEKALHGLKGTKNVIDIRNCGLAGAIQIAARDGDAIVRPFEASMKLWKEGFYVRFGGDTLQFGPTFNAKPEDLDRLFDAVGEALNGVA

`CC(C)(COP(=O)(O)OP(=O)(O)OC[C@H]1O[C@@H](n2cnc3c(N)ncnc32)[C@H](O)[C@@H]1OP(=O)(O)O)[C@@H](O)C(=O)NCCC(=O)NCCS` [CoA] was tested, and the “KES23458-coupled NADH formation, A340” value (KES23460; co-substrate malonate semialdehyde formed in situ) was “In the presence of CoA, the transthioesterification step was observed to be significantly faster”.

In the case of `Cc1ncc(COP(=O)(O)O)c(C=O)c1O` [PLP], the “X-ray crystallography; mass spectrometry” value (KES23458) is reported as “with the mass gain corresponding to aldimine-bound unmodified PLP”.

In the case of `O=CCC(=O)O` [malonic acid semialdehyde], the “KES23458-coupled NADH formation, A340” value (KES23460; formed in situ from […] beta-alanine and pyruvate by KES23458, with or without CoA) is reported as “significant activity with only one of the substrates tested, malonic acid semialdehyde”.
